Reference: patent US20240116985A1, “STAPLED PEPTIDES AND METHODS THEREOF” (priority 2020, published 2024)
≈ marks a conversion by molar mass, not a printed value. Where “and” joins values, the source holds several entries; their conditions need not be identical. Equal values may be shown once. Read-outs that look alike come from different tables or passages of the source.

What was measured:
[1] = target: T1, full-length beta-Catenin (Uniprot ID P35222) (Homo sapiens, UniProt P35222); assay: Fluorescence polarization IC50 (beta-catenin / 5FAM-TCF4 10-53 competition); assay type: binding; conditions: read-out: beta-Catenin FP IC50
T1 construct: 10 nM full-length beta-Catenin (Uniprot ID P35222)
T1 sequence (P35222 1-781): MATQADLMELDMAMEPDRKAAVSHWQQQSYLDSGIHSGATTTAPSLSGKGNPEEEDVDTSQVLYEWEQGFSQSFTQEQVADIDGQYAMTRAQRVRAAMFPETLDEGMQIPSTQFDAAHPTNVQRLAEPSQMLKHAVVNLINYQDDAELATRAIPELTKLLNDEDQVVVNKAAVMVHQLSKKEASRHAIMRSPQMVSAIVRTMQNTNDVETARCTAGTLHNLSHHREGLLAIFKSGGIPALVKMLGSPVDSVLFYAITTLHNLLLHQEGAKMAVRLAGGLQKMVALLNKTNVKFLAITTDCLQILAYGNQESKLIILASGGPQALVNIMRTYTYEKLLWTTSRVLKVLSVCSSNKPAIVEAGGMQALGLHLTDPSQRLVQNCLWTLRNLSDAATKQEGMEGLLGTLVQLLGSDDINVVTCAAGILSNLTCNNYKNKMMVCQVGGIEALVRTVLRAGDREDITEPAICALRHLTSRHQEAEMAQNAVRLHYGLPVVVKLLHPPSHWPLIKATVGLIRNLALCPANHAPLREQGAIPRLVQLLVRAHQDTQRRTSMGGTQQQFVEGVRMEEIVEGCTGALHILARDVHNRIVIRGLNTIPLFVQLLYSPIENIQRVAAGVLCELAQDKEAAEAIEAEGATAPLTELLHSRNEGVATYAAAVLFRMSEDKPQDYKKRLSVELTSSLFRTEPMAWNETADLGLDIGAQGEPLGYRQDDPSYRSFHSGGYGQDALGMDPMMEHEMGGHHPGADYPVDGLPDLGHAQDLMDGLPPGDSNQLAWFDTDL

Solubility in PBS = assay type: physicochemical; conditions: Solubility (uM)
Outline: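 HPLC quantitation of peptide remaining in the PBS supernatant after ultracentrifugation, referenced to a 50 μM solution in DMSO.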

CHI Log D procedure = assay type: physicochemical; conditions: pH 7.4, CHI Log D
[2] = target: T2, beta-catenin/TCF4 engagement (Homo sapiens, UniProt P35222); assay: Nano-BRET target engagement assay (B-cat-Halo & TCF4-Luc in HEK293 cells); assay type: cell-based; conditions: for inhibition at 10 µM: HEK293, 10 uM
T2 construct: expressed in transfected cells; host or cells: HEK293
T2 sequence (P35222 1-781): T1 sequence (P35222 1-781)

[3] = plate row B = 20 uM, integration 0.3 s, reading 1

Question: Which IC50 [1] does the source give for `CC(=O)N1CCC[C@]12CC=CCCCC1(CCCC=CCCCOC(=O)N3CC[C@@](C(=O)N[C@@H](Cc4ccsc4)C(=O)N[C@@H](Cc4csc5ccccc45)C(=O)N[C@@H](CCC(N)=O)C(=O)N[C@H](C)C(N)=O)(C3)NC(=O)[C@H](CC(N)=O)NC(=O)[C@H](Cc3ccccc3)NC(=O)[C@H](C)NC(=O)[C@H](C)NC(=O)[C@H](CC(=O)O)NC(=O)[C@H](CC(=O)O)NC1=O)NC(=O)[C@H](CC(C)(C)C)NC(=O)[C@H](CC(=O)O)NC2=O` (stereo partly drawn) [I-822, Ac-PL3-Asp-Npg-B5-Asp-Asp-Ala-Ala-Phe-Asn-PyrS2-3Thi-BztA-Gln-dAla-NH2] here?
Answer: 0.006 µM

Question: And the Solubility (Solubility in PBS)?
Answer: 46 µM (≈ 91.5 µg/mL)

Question: What about the chromatographic logD (CHI Log D procedure) of the same compound?
Answer: 2.03

Question: What about the “BRET % Inhibition” value ([2]; 0.625 uM, replicates) of the same compound?
Answer: −32.1% and −5.3% and 6.3%

Question: What about the “BRET % Inhibition” value ([2]; 1.25 uM, replicates) of the same compound?
Answer: −6.1% and −18.2% and −25.1%

Question: And the “BRET % Inhibition” value ([2]; 2.5 uM, replicates)?
Answer: −23.7% and 8.1% and −9.2%

Question: What about the “BRET % Inhibition” value ([2]; 5 uM, replicates) of the same compound?
Answer: 6.8% and −15.3% and 30.1%

Question: What about the “BRET % Inhibition” value ([2]; 10 uM, replicates) of the same compound?
Answer: 24.5% and 21.5%

Question: And the “BRET % Inhibition” value ([2]; 20 uM, replicates)?
Answer: 52.9% and 40.7% and 71.4%

Question: And the inhibition at 10 µM ([2]; read-out: NanoBRET % inh @ 10 uM)?
Answer: 53%

Question: And the inhibition at 10 µM ([2]; replicates, read-out: BRET % Inhibition)?
Answer: 35.7%

Question: What about the “BRET Acceptor 600 LP raw reading” value [2, 3] of the same compound?
Answer: 450 and 280

Question: And the “BRET Donor 450 BP raw reading” value [2, 3]?
Answer: 59340 and 52650 and 45840

Question: What about the “BRET Acceptor 600 LP raw reading” value ([2]; plate row C = 10 uM) of the same compound?
Answer: 490 and 470

Question: And the “BRET Donor 450 BP raw reading” value ([2]; plate row C = 10 uM)?
Answer: 54740 and 47760 and 46640

Question: What about the “BRET Acceptor 600 LP raw reading” value ([2]; plate row D = 5 uM) of the same compound?
Answer: 630 and 600 and 430

Question: And the “BRET Donor 450 BP raw reading” value ([2]; plate row D = 5 uM)?
Answer: 56000 and 46130 and 45780

Question: And the “BRET Donor 450 BP raw reading” value ([2]; plate row E = 2.5 uM)?
Answer: 54130 and 32300 and 33550

Question: What about the “BRET Acceptor 600 LP raw reading” value ([2]; plate row F = 1.25 uM (plate map)) of the same compound?
Answer: 470 and 380 and 260

Question: And the IC50 ([2]; read-out: NanoBRET Abs IC50)?
Answer: 6.3 µM

Question: And the IC50 ([2]; read-out: NanoBRET IC50)?
Answer: 7.7 µM
